Measured values as given in paper PMC4848495, “Identification of a Potent and Broad-Spectrum Hepatitis C Virus Fusion Inhibitory Peptide from the E2 Stem Domain” (Scientific Reports, 2016).
Residues, ends and D or L forms follow the SMILES beside them.

test system: HCVcc (Jc1-luc); test: not given; conditions: Huh7.5.1 cells, various concentration ratios, CalcuSyn

For `NC(=O)c1ncn([C@@H]2O[C@H](CO)[C@@H](O)[C@H]2O)n1` [Ribavirin], the “effect on inhibition of HCV infection in combination with E27” value (“effect on inhibition of HCV infection” below) was “slightly synergistic trend”.
In the case of `COc1ccc2c(O[C@@H]3C[C@H]4C(=O)N[C@]5(C(=O)NS(=O)(=O)C6CC6)C[C@H]5/C=C\CCCCN(C)C(=O)[C@@H]4C3)cc(-c3nc(C(C)C)cs3)nc2c1C` [Simeprevir], the “effect on inhibition of HCV infection” value is reported as “slight antagonism”.
For `CC(C)OC(=O)[C@H](C)N[P@](=O)(OC[C@H]1O[C@@H](n2ccc(=O)[nH]c2=O)[C@](C)(F)[C@@H]1O)Oc1ccccc1` [Sofosbuvir], the “effect on inhibition of HCV infection” value was “slight antagonism”.
For `CCC[C@H](NC(=O)[C@@H]1[C@H]2CCC[C@H]2CN1C(=O)[C@@H](NC(=O)[C@@H](NC(=O)c1cnccn1)C1CCCCC1)C(C)(C)C)C(=O)C(=O)NC1CC1` [Telaprevir], the “effect on inhibition of HCV infection” value was “slightly synergistic trend”.

biological target: HCV glycoprotein E1E2-mediated membrane fusion (Hepatitis C virus genotype 1a, UniProt P27958); test: cell-based; assay type: cell-based, Hepatitis C virus (strain H77); conditions: not given
Sequence (P27958 384-746): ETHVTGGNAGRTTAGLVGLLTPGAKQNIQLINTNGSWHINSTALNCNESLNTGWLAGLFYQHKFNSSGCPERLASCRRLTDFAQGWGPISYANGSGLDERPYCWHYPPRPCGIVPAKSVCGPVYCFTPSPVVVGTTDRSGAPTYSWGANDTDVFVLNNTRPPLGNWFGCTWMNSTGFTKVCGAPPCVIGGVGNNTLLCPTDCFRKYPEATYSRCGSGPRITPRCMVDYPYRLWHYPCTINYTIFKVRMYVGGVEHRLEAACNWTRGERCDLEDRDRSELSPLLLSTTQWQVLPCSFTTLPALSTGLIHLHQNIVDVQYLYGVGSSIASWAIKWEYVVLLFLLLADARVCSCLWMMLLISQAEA
Sequence (P27958 192-383): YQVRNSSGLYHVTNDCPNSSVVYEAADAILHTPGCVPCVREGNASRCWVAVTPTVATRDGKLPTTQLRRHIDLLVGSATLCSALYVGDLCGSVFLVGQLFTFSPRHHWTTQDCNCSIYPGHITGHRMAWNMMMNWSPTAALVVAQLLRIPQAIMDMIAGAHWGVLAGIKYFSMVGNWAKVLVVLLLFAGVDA

For `CC[C@H](C)[C@H](NC(=O)[C@H](C)NC(=O)[C@H](Cc1c[nH]c2ccccc12)NC(=O)[C@H](CO)NC(=O)[C@H](C)NC(=O)[C@@H](NC(=O)[C@H](CO)NC(=O)[C@H](CO)NC(=O)CNC(=O)[C@@H](NC(=O)CNC(=O)[C@H](Cc1ccc(O)cc1)NC(=O)[C@H](CC(C)C)NC(=O)[C@H](Cc1ccc(O)cc1)NC(=O)[C@H](CCC(N)=O)NC(=O)[C@@H](NC(=O)[C@H](CC(=O)O)NC(=O)[C@@H](NC(=O)[C@@H](NC(=O)[C@H](CC(N)=O)NC(=O)[C@H](CCC(N)=O)NC(=O)[C@H](Cc1c[nH]cn1)NC(=O)[C@H](CC(C)C)NC(=O)[C@H](Cc1c[nH]cn1)NC(=O)[C@@H](NC(=O)[C@H](CC(C)C)NC(=O)CNC(=O)[C@@H](NC(=O)[C@H](CO)NC(=O)[C@H](CC(C)C)NC(=O)[C@H](C)NC(=O)[C@@H]1CCCN1C(=O)[C@H](CC(C)C)NC(=O)[C@@H](N)[C@@H](C)O)[C@@H](C)O)[C@@H](C)CC)[C@@H](C)CC)C(C)C)C(C)C)C(C)C)[C@@H](C)CC)C(=O)N[C@@H](CCCCN)C(=O)O` [E28] (H-TLPALSTGLIHLHQNIVDVQYLYGVGSSIASWAIK-OH; N-terminus and C-terminus assumed), the EC50 was > 20 µM.

same assay, conditions: Cre/stop fusion system, peptide 1 µM, luciferase divided by solvent control (0.5% DMSO)

In order of falling “% of fusion” value:
1. FGVP TYSWGENE TDVLLLNNTRPP QGNWFG [HCV-23, 30-mer of overlapping E1E2 peptide library]  145.0%
2. IDAF AQGWGP ITYNESHSSDQRP YCWHYAP [HCV-19, 30-mer of overlapping E1E2 peptide library]  129.8%
3. AGLAYYSMVGNWAKVLIVMLLF AGVDGGTY [HCV-12, 30-mer of overlapping E1E2 peptide library]  122.8%
4. PPCNIGGI GNKTLTCP TDCFRKHP EATYTK [HCV-26, 30-mer of overlapping E1E2 peptide library]  121.6%
5. QAVVDMVAGAHWGVLAGLAYYSMVGNWAKV [HCV-11, 30-mer of overlapping E1E2 peptide library]  121.6%
6. FKVRMYVGGVEHRLE AACNWTRGERCNLED [HCV-30, 30-mer of overlapping E1E2 peptide library]  99.6%
7. CTWMNSTGF TKTC GGP P CNIGGI GNKTLTC [HCV-25, 30-mer of overlapping E1E2 peptide library]  87.4%
8. GSVFLVAQLFTFSPRRHETVQDCNCSIYPG [HCV-7, 30-mer of overlapping E1E2 peptide library]  85.5%
9. RCWVALTP TLAARNASVP TTTIRRHVDLLV [HCV-4, 30-mer of overlapping E1E2 peptide library]  85.2%
10. SVP TTTIRRHVDLLV GAAALC SAMYVGDLC [HCV-5, 30-mer of overlapping E1E2 peptide library]  84.7%
11. P YRLWHYP CTVNFTIFKVRMYVGGVEHRLE [HCV-29, 30-mer of overlapping E1E2 peptide library]  83.2%
12. CGS GP WLTP RCLVHYP YRLWHYP CTVNFTI [HCV-28, 30-mer of overlapping E1E2 peptide library]  82.2%
13. GAAALCSAMYV GDLC GSVFLVAQLF TFSP R [HCV-6, 30-mer of overlapping E1E2 peptide library]  81.5%
14. CSNASIVYEAADMIMHTP GC VP CVRENNSS [HCV-2, 30-mer of overlapping E1E2 peptide library]  80.8%
15. YCFTP SPVVVGTTDRF GVP TYSWGENETDV [HCV-22, 30-mer of overlapping E1E2 peptide library]  79.0%
16. SP TAALVVSQLLRIP QAVVDMVAGAHWGVL [HCV-10, 30-mer of overlapping E1E2 peptide library]  78.8%
17. RHETVQDCNCSIYP GHVTGHRMAWDMMMNW [HCV-8, 30-mer of overlapping E1E2 peptide library]  76.9%
18. FNSSGCPERMASCSPIDAFAQGWGPITYNE [HCV-18, 30-mer of overlapping E1E2 peptide library]  70.8%
19. VTGGTM AKNTLGI TSLFSP GSSQKIQLVNT [HCV-14, 30-mer of overlapping E1E2 peptide library]  69.6%
20. SLNTGFLAALFYVHKFNSSGCPERMASCSP [HCV-17, 30-mer of overlapping E1E2 peptide library]  66.7%
21. SHSSDQRP YCWHYAP RP CGI VP AAQVC GP V [HCV-20, 30-mer of overlapping E1E2 peptide library]  65.8%
22. P TDCF RKHP EATY TKC GS GP W LTP RCLV HY [HCV-27, 30-mer of overlapping E1E2 peptide library]  65.1%
23. HTP GCVP CVRENNSSRCWVALTP TLAAR NA [HCV-3, 30-mer of overlapping E1E2 peptide library]  64.3%
24. NGS WHINR TALNCNDSLNTGFLAALFYVHK [HCV-16, 30-mer of overlapping E1E2 peptide library]  64.2%
25. RP CGIVP AAQVC GP VYCFTP SPVVVGTTDR [HCV-21, 30-mer of overlapping E1E2 peptide library]  63.7%
26. LIVMLLF AGVDGGTYVTGGTMAKNTLGI TS [HCV-13, 30-mer of overlapping E1E2 peptide library]  60.1%
27. AAC NW TR GERCN LEDRDRS E LS P LLLS TTE [HCV-31, 30-mer of overlapping E1E2 peptide library]  56.9%
28. HVTGHRMAWDMMMNWSP TAALVVSQLLRIP [HCV-9, 30-mer of overlapping E1E2 peptide library]  56.9%
29. YEVRNVSGVYHVTNDCSNAS IVYEAADMIM [HCV-1, 30-mer of overlapping peptide library covering full-length E1E2 of HCV strain H77]  56.4%
30. LFSP GSSQKIQLVNTNGS WHI NRTALNCND [HCV-15, 30-mer of overlapping E1E2 peptide library]  56.0%
31. LYGIGS AVVSFAIKWEYVLLLFLLLADARV [HCV-35, 30-mer of overlapping E1E2 peptide library]  40.0%
32. TGLIHLHQNVVDVQYLYGI GSAVVSFAIKW [HCV-34, 30-mer of overlapping E1E2 peptide library]  24.9%
33. EYVLLLFLLLADARVCACLWMMLLIAQAEA [HCV-36, 30-mer of overlapping E1E2 peptide library]  10.7%
34. WQVLP CSFTTLP ALS TGLIHLHQNVVDVQY [HCV-33, 30-mer of overlapping E1E2 peptide library]  9.7%

With “RDRS ELS P LLLS TTEW QV LP CS F TTLP ALS [HCV-32, 30-mer of overlapping E1E2 peptide library]” the “% of fusion” value was 11 . 2%.
